Data from patent publication US20150105252A1, “SUBSTITUTED PYRAZOLES AS HERBICIDES” (E I DU PONT DE NEMOURS AND COMPANY, priority 2013, published 2015).

Legend:
[1] = system: foxtail, giant; assay: Test A preemergence; format: in vivo, Setaria faberii; details: preemergence; for Foxtail, Giant plant response rating (0 to 100 scale): 125 g ai/ha, visual injury approx. 10 days after treatment; for Foxtail, Giant plant response rating: 500 g ai/ha, visual injury after approx. 10 days, 0 to 100 scale (0 no effect, 100 complete control)
How it was run: (§1)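 Visual injury ratings, 0 = no effect to 100 = complete control, taken about 10 days after treatment against untreated controls. Test chemicals, in a non-phytotoxic surfactant-containing solvent, were sprayed onto soil preemergence or onto one- to two-leaf plants (2–10 cm) postemergence, in loam–sand soil under greenhouse conditions.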

[2] = system: morningglory; assay: Test A preemergence; format: in vivo, Ipomoea spp.; details: preemergence, 125 g ai/ha, visual injury approx. 10 days after treatment
How it was run: as §1

[3] = system: corn; assay: Test A preemergence; format: in vivo, Zea mays; details: preemergence; for Corn plant response rating (0 to 100 scale): 125 g ai/ha, visual injury approx. 10 days after treatment; for Corn plant response rating: 500 g ai/ha, visual injury after approx. 10 days, 0 to 100 scale (0 no effect, 100 complete control)
How it was run: as §1

[4] = system: barnyardgrass; assay: Test A postemergence; format: in vivo, Echinochloa crus-galli; details: Postemergence
How it was run: as §1

[5] = system: velvetleaf; assay: Test A postemergence; format: in vivo, Abutilon theophrasti; details: Postemergence
How it was run: as §1

[6] = system: corn; assay: Test A postemergence; format: in vivo, Zea mays; details: Postemergence
How it was run: as §1

[7] = system: galium; assay: Test C preemergence; format: in vivo, Galium aparine
How it was run: (§2)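 Greenhouse pot test: preemergence application onto freshly seeded loam/sand mix, postemergence application onto seedlings (1–4 leaves, 2–18 cm) in peat-vermiculite substrate. Responses scored visually 13 to 15 days later relative to controls, where 0 means no effect and 100 means complete control; a dash indicates no result.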

[8] = system: barnyardgrass; assay: Test C preemergence; format: in vivo, Echinochloa crus-galli; details: preemergence; for Plant response rating, Barnyardgrass: 125 g ai/ha, scale 0 to 100, 0 = no effect, 100 = complete control
How it was run: as §2

[9] = system: lambsquarters; assay: Test C postemergence; format: in vivo, Chenopodium album; details: for Plant response rating (scale of 0 to 100 where 0 is no effect and 100 is complete control), Lambsquarters: Postemergence, 31 g ai/ha, visually evaluated after 13 to 15 days; for Lambsquarters plant response rating / Plant response rating, Lambsquarters: postemergence; for Lambsquarters plant response rating: 62 g ai/ha, scale 0 to 100
How it was run: as §2

[10] = system: morningglory; assay: Test C postemergence; format: in vivo, Ipomoea coccinea; details: for Plant response rating (scale of 0 to 100 where 0 is no effect and 100 is complete control), Morningglory: Postemergence, 31 g ai/ha, visually evaluated after 13 to 15 days; for Morningglory plant response rating / Plant response rating, Morningglory: postemergence; for Morningglory plant response rating: 62 g ai/ha, scale 0 to 100
How it was run: as §2

[11] = system: pigweed; assay: Test C postemergence; format: in vivo, Amaranthus retroflexus; details: postemergence; for Pigweed plant response rating: 62 g ai/ha, scale 0 to 100
How it was run: as §2

[12] = system: barnyardgrass; assay: Test C postemergence; format: in vivo, Echinochloa crus-galli; details: for Plant response rating (scale of 0 to 100 where 0 is no effect and 100 is complete control), Barnyardgrass: Postemergence, 31 g ai/ha, visually evaluated after 13 to 15 days; for Barnyardgrass plant response rating / Plant response rating, Barnyardgrass: postemergence; for Barnyardgrass plant response rating: 62 g ai/ha, scale 0 to 100
How it was run: as §2

[13] = system: oilseed rape; assay: Test C postemergence; format: in vivo, Brassica napus; details: postemergence; for Oilseed Rape plant response rating: 62 g ai/ha, scale 0 to 100
How it was run: as §2

[14] = system: oat, wild; assay: Test C postemergence; format: in vivo, Avena fatua; details: for Plant response rating (scale of 0 to 100 where 0 is no effect and 100 is complete control), Oat, Wild: Postemergence, 31 g ai/ha, visually evaluated after 13 to 15 days; for Oat, Wild plant response rating / Plant response rating, Oat, Wild: postemergence; for Oat, Wild plant response rating: 62 g ai/ha, scale 0 to 100
How it was run: as §2

[15] = system: velvetleaf; assay: Test C postemergence; format: in vivo, Abutilon theophrasti; details: postemergence; for Plant response rating, Velvetleaf: 250 g ai/ha, scale 0 to 100 (0 no effect, 100 complete control); for Velvetleaf plant response rating: scale 0 to 100
How it was run: as §2

[16] = system: chickweed; assay: Test C postemergence; format: in vivo, Stellaria media; details: for Plant response rating (scale of 0 to 100 where 0 is no effect and 100 is complete control), Chickweed: Postemergence, 31 g ai/ha, visually evaluated after 13 to 15 days; for Chickweed plant response rating / Plant response rating, Chickweed: postemergence; for Chickweed plant response rating: 62 g ai/ha, scale 0 to 100
How it was run: as §2

[17] = 125 g ai/ha, 0 to 100 scale, 0 no effect, 100 complete control
[18] = 500 g ai/ha, 0 to 100 scale (0 no effect, 100 complete control)
[19] = preemergence, 62 g ai/ha, scale 0 to 100 (0 no effect, 100 complete control), 13 to 15 days
[20] = preemergence, 125 g ai/ha, 13 to 15 days, scale 0 to 100, 0 = no effect, 100 = complete control
[21] = preemergence, 250 g ai/ha, scale 0 to 100, 0 is no effect, 100 is complete control
[22] = 31 g ai/ha, visual rating, scale 0 to 100 (0 no effect, 100 complete control), 13 to 15 days
[23] = 62 g ai/ha, scale 0 to 100 (0 no effect, 100 complete control), 13 to 15 days
[24] = 250 g ai/ha, scale 0 to 100, 0 is no effect, 100 is complete control
[25] = 250 g ai/ha, scale 0 to 100 (0 no effect, 100 complete control)
[26] = 125 g ai/ha, scale 0 to 100, 0 no effect, 100 complete control

CCc1cc(C(=O)NCC(F)(F)F)nn1Cc1ccnc(SC(F)(F)F)c1 [Compound 214]
Foxtail, Giant plant response rating (0 to 100 scale) [1]: 100 | Foxtail, Giant plant response rating [1]: 100 | Morningglory plant response rating (0 to 100 scale) [2]: 80 | Corn plant response rating (0 to 100 scale) [3]: 10 | Corn plant response rating [3]: 90 | Barnyardgrass plant response rating [4, 17]: 100 | Barnyardgrass plant response rating [4, 18]: 100 | Velvetleaf plant response rating [5, 17]: 80 | Velvetleaf plant response rating [5, 18]: 100 | Corn plant response rating [6, 17]: 40 | Corn plant response rating [6, 18]: 90 | Galium plant response rating ([7]; preemergence, 31 g ai/ha, visual rating, scale 0 to 100 (0 no effect, 100 complete control), 13 to 15 days): 80 | Galium plant response rating [7, 19]: 80 | Plant response rating, Galium [7, 20]: 90 | Galium plant response rating [7, 21]: 80 | Barnyardgrass plant response rating [8, 22]: 40 | Barnyardgrass plant response rating [8, 23]: 95 | Plant response rating, Barnyardgrass ([8]; 13 to 15 days): 100 | Barnyardgrass plant response rating [8, 24]: 100 | Plant response rating (scale of 0 to 100 where 0 is no effect and 100 is complete control), Lambsquarters [9]: 35 | Lambsquarters plant response rating [9]: 50 | Plant response rating, Lambsquarters [9, 25]: 80 | Plant response rating, Lambsquarters [9, 26]: 75 | Plant response rating (scale of 0 to 100 where 0 is no effect and 100 is complete control), Morningglory [10]: 75 | Morningglory plant response rating [10]: 95 | Plant response rating, Morningglory [10, 25]: 85 | Plant response rating, Morningglory [10, 26]: 85 | Pigweed plant response rating [11]: 60 | Plant response rating, Pigweed [11, 25]: 85 | Plant response rating, Pigweed [11, 26]: 75 | Plant response rating (scale of 0 to 100 where 0 is no effect and 100 is complete control), Barnyardgrass [12]: 5 | Barnyardgrass plant response rating [12]: 5 | Plant response rating, Barnyardgrass [12, 25]: 65 | Plant response rating, Barnyardgrass [12, 26]: 30 | Oilseed Rape plant response rating [13]: 60 | Plant response rating, Oilseed Rape [13, 25]: 70 | Plant response rating, Oilseed Rape [13, 26]: 60 | Plant response rating (scale of 0 to 100 where 0 is no effect and 100 is complete control), Oat, Wild [14]: 10 | Oat, Wild plant response rating [14]: 15 | Plant response rating, Oat, Wild [14, 25]: 40 | Plant response rating, Oat, Wild [14, 26]: 15 | Plant response rating, Velvetleaf [15]: 75 | Velvetleaf plant response rating [15]: 20 | Plant response rating (scale of 0 to 100 where 0 is no effect and 100 is complete control), Chickweed [16]: 50 | Chickweed plant response rating [16]: 55 | Plant response rating, Chickweed [16, 25]: 85 | Plant response rating, Chickweed [16, 26]: 70

CCc1cc(C(=O)NC2CC2)nn1Cc1ccnc(Br)c1 [Compound 220]
Foxtail, Giant plant response rating (0 to 100 scale) [1]: 100 | Foxtail, Giant plant response rating [1]: 100 | Morningglory plant response rating (0 to 100 scale) [2]: 20 | Corn plant response rating (0 to 100 scale) [3]: 0 | Corn plant response rating [3]: 90 | Barnyardgrass plant response rating [4, 17]: 80 | Barnyardgrass plant response rating [4, 18]: 100 | Velvetleaf plant response rating [5, 17]: 70 | Velvetleaf plant response rating [5, 18]: 80 | Corn plant response rating [6, 17]: 40 | Corn plant response rating [6, 18]: 90 | Plant response rating, Galium ([7]; Preemergence, rate head not shown (block before 16 g ai/ha), scale 0 to 100): 5 | Galium plant response rating [7, 19]: 80 | Plant response rating, Galium [7, 20]: 80 | Galium plant response rating [7, 21]: 98 | Barnyardgrass plant response rating [8, 22]: 0 | Barnyardgrass plant response rating [8, 23]: 15 | Plant response rating, Barnyardgrass ([8]; 13 to 15 days): 35 | Barnyardgrass plant response rating [8, 24]: 95 | Plant response rating (scale of 0 to 100 where 0 is no effect and 100 is complete control), Lambsquarters [9]: 30 | Lambsquarters plant response rating [9]: 10 | Plant response rating, Lambsquarters [9, 25]: 25 | Plant response rating, Lambsquarters [9, 26]: 20 | Plant response rating (scale of 0 to 100 where 0 is no effect and 100 is complete control), Morningglory [10]: 10 | Morningglory plant response rating [10]: 55 | Plant response rating, Morningglory [10, 25]: 70 | Plant response rating, Morningglory [10, 26]: 40 | Pigweed plant response rating [11]: 25 | Plant response rating, Pigweed [11, 25]: 60 | Plant response rating, Pigweed [11, 26]: 40 | Plant response rating (scale of 0 to 100 where 0 is no effect and 100 is complete control), Barnyardgrass [12]: 0 | Barnyardgrass plant response rating [12]: 0 | Plant response rating, Barnyardgrass [12, 25]: 15 | Plant response rating, Barnyardgrass [12, 26]: 10 | Oilseed Rape plant response rating [13]: 5 | Plant response rating, Oilseed Rape [13, 25]: 40 | Plant response rating, Oilseed Rape [13, 26]: 30 | Plant response rating (scale of 0 to 100 where 0 is no effect and 100 is complete control), Oat, Wild [14]: 0 | Oat, Wild plant response rating [14]: 5 | Plant response rating, Oat, Wild [14, 25]: 15 | Plant response rating, Oat, Wild [14, 26]: 10 | Plant response rating, Velvetleaf [15]: 40 | Velvetleaf plant response rating [15]: 45 | Plant response rating (scale of 0 to 100 where 0 is no effect and 100 is complete control), Chickweed [16]: 50 | Chickweed plant response rating [16]: 55 | Plant response rating, Chickweed [16, 25]: 80 | Plant response rating, Chickweed [16, 26]: 60
